Read-outs that look alike come from different tables or passages of the source.
Key:
[1] = Potentiometry: stability constants and pFe3+ of the iron complex; assay type: physicochemical; conditions: pH 7.4
Protocol: The complexation affinity of Quilamine with the metal ion in the organism reflects the chelating capacity or chelating power of Quilamine. This affinity can be assessed by measuring the value of pW corresponding to −log of the concentration in free metal ion W, i.e. non-complexated by the Quilamine for a ratio of respective concentrations of Quilamine (10 micromoles per liter) and metal ion (1 micromole per liter) equal to 10, at 25° C. and pH 7.4. The higher the value of pW, the greater the affinity of Quilamine with metal ion. The affinity of Quilamine with iron in its ferric form (Fe(III)) and its ferrous form (Fe(II)) is measured respectively by pFe^3+ and pFe^2+ at physiological pH (pH=7.4), at 25° C.
Potentiometry measurements were made in thermostated titration cells at 25±0.1° C., using a Metrohm 702 SM Titrino titrator connected to a Metrohm 6.0233.100. The ligand solution is prepared in a concentration of ˜1.5×10^−3 moles per liter, the solution of Fe^3+ is made from FeCl3 and titrated by complexation with a standard solution of EDTA (ethylenediaminetetracetic acid). The sample for the measurement contained approximately 0.03 millimoles per liter of ligand in a volume of 30 ml where the ionic strength is maintained at 0.1 mole per liter in using KNO3 as a support electrolyte. During the titrations, Fe^3+ is added to 0.45 or 0.9 equivalents of ligand. Each titration consists of 150-200 equilibrium points with pH varying from 2.0 to 11.5, and is repeated at least twice. The thermodynamic constants are computed with the software […] and the speciation diagram of the species is done by the Hyss program.

[2] = system: wild cell line (CHO) of hamster ovarian cells; assay: Anti-proliferative effect on CHO cells, counting of cell nuclei (Hoechst 33342); assay type: cell-based; conditions: 72 h treatment, no exogenous iron; read-out: IC50 CHO
Protocol: The in vitro efficacy of different Quilamines was tested on a wild cell line (CHO) of hamster ovarian cells having PTS and a mutant cell line CHO-MG without PTS. The two cell types CHO and CHO-MG were treated, 24 hours after being seeded in 96-well microplates, by concentrations of different Quilamines ranging from 0.1 to 400 micromoles per liter. The cytostatic (anti-proliferative) effects and cytotoxic effects of Quilamine after 72 hours' treatment of the cells were assessed respectively by counting cell nuclei after DNA marking by the Hoechst 33342 fluorescent intercalant dye and by analysis of membrane damage detected by the dosing of the lactate dehydrogenase activity (LHD) in the supernatants.
The IC50 inhibitor concentration corresponding to the concentration in Quilamines enables the inhibition at 50% of the cell proliferation was deduced from the dose-effect curves of numeration of the nuclei of the living cells on the CHO and CHO-MG cell lines. […] The lower the value of IC50, the greater the efficiency of the anti-proliferative effect of the tested chelators.
A comparison was made of the cytostatic or anti-proliferative action and the cytotoxic action for 72 h of treatment by Quilamine HQ1-44 and 8-hydroxyquinoline and ICL670, on the CHO cell lines in the presence and without the presence of exogenous iron, in the form of Fe(III) citrate in a concentration of 20 micromoles per liter. The results obtained are shown in FIG. 4, FIG. 4A relating to the results on cell viability and FIG. 4B relating to the results on cell toxicity.

Caco-2 cells [3] = assay: Cell viability of proliferating Caco-2 cells (number of nuclei); assay type: cell-based, human; conditions: for IC50: no exogenous iron; for Constituent 1 (1-10 μM) % cell / Constituent 2 (10-100 μM) % cell: Caco-2 J4, no exogenous iron
Protocol: (§1) The action of Quilamines on the cell viability was analyzed on enterocyte cells of the Caco-2 tumor cell line derived from human colon carcinoma and compared with the action of ICL670 in the presence or absence of exogenous iron, after activation (DFMO) or competitive inhibition by spermidine, of the PTS. The operating conditions used are identical to those used for CHO/CHO-MG and HepG2 cells.
The results for the measurement of the anti-proliferative effect of Quilamines, and of ICL670 on the proliferating cells (cytostatic constituent) when there is no exogenous iron have been listed in the table 4 below.

Caco-2 cells [4] = assay: LDH release of Caco-2 cells; assay type: cell-based, human; conditions: for % LDH/control 10 μM: Caco-2 J4, 10 μM; for % LDH/control 100 μM: Caco-2 J4, 100 μM
Protocol: as §1
As in the case of the other cell lines in proliferative phase presented here above, the dose-effect curves of the action of the Quilamines on the number of viable cells (number of nuclei) are biphase curves with a cytostatic constituent for concentration values of below 30 micromoles per liter and a cytotoxic constituent with release of LDH for concentration values above 30 micromoles per liter. Only this second cytotoxic constituent is observed when the cells of the Caco-2 cell line are treated after confluence (stopping of the proliferation).

HepG2 cells = assay: Anti-proliferative effect on HepG2 cells (nuclei count or SDH activity); assay type: cell-based, human; conditions: 72 h; for IC50: HepG2, absence of exogenous iron, read-out: IC50 associated with the cytostatic effect; for % of HepG2 cells concerned by the anti-proliferative effect: absence of exogenous iron
From the text: The majority of the Quilamines, like ICL670, show biphase dose-effect curves in the absence of exogenous iron, with an anti-proliferative constituent for concentration values of 1 to 10 micromoles per liter and a cytotoxic constituent associated with a release of LDH for concentration values of over 10 micromoles per liter. The percentage of HepG2 cells concerned by the anti-proliferative effect and the values of IC50 associated with this cytostatic effect in the absence of exogenous iron were listed in the table 4 below.
The implication of PTS in the cytostatic and cytotoxic action of Quilamines was analyzed in proliferating HepG2 hepatocyte tumor cells after activation of PTS or competitive inhibition of PTS by spermidine, a polyamine naturally present in the organism and most efficaciously captured by the PTS. The conditions of treatment by Quilamines are identical to those described in paragraph III-1.
Inhibiting ornithine decarboxylase (ODC), the key enzyme in the biosynthesis of polyamines, causes a depletion of intra-cell polyamines and an activation of PTS which enables the deficiency to be met. This activation of PTS is done by means of the ODC inhibitor, alpha-difluoromethyl ornithine (DFMO).
The competitive inhibition of PTS by spermidine is prompted by the co-treatment of the cells by the Quilamines in the presence of spermidine, in a concentration of 50 micromoles per liter.

[5] = system: mutant cell line CHO-MG without PTS; assay: Anti-proliferative effect on CHO-MG cells without PTS, counting of cell nuclei; assay type: cell-based, hamster; conditions: for IC50: 72 h treatment; for Ratio IC50 (CHO-MG/CHO): selectivity of recognition by the PTS
From the text: The IC50 inhibitor concentration corresponding to the concentration in Quilamines enables the inhibition at 50% of the cell proliferation was deduced from the dose-effect curves of numeration of the nuclei of the living cells on the CHO and CHO-MG cell lines. These dose-effect curves are sometimes bi-phase curves as in the case of Quilamine HQ1-44 which has an anti-proliferative constituent (without concomitant release of LDH in supernatant) in the range of concentrations of 0.4 to 3 micromoles per liter and a second cytotoxic constituent accompanied by membrane toxicity expressed by the release of LDH for concentrations of over […]. The lower the value of IC50, the greater the efficiency of the anti-proliferative effect of the tested chelators.
Furthermore, the ratio of the IC50 inhibitor concentrations found for the CHO-MG and the CHO cell lines (Ratio IC50 (CHO-MG/CHO)) was computed for several Quilamines according to the invention. This ratio makes it possible to estimate the selectivity of recognition of the different chelators by the PTS: the higher the ratio, the more clearly is the chelator recognized by the PTS. When this ratio is close to 1, the tested chelator is not recognized or is little recognized by the PTS.

[6] = Calcein test: shift of iron(III) complexated with calcein; assay type: physicochemical; conditions: pH 7.4
Protocol: The Quilamines HQ1-34, HQ1-344, HQ1-343, HQ1-33, HQ1-333, HQ1-44, HQ1-43, HQ1-444, HQ1-443 according to the invention were synthesized and tested. For each Quilamine, its capacity to shift iron (III) complexated with calcein was tested. Calcein is a fluorescent molecule which has a pFe3+ value of 20.3 with pH 7.4 close to the value measured for ligands of low molecular weight present in human or animal cells and complexating the labile iron pool, such as citrate which has a pFe^3+ value of 19.3 with pH of 7.4 (LIP). The fluorescence of calcein is detected on a microplate, in a concentration of 0.1 micromole per liter, in solution in a HEPES buffer (4-(2-hydroxyethyl)-1-piperazine ethane sulfonic acid) with pH 7.4, in a Fusion (Packard) type a microplate fluorescence reader, under excitation at 450 nanometers and analysis of the fluorescence emission at 515 nanometers. The fluorescence of calcein is extinguished in the presence of iron(III) in the form of hydrochloride (chloride) with a concentration of 1 micromole per liter. The addition of Quilamine in different concentrations ranging from 0.01 to 40 micromoles per liter prompts the shifting of iron(III) complexated with calcein towards Quilamine, resulting in a restoration of the fluorescence of the calcein. The dose-effect curves expressing the percentage of restoration of fluorescence of calcein (relative to the fluorescence of the free molecule in the absence of iron), for each Quilamine concentration, makes it possible to deduce the Quilamine concentration prompting the 50% shift of Fe(III) from calcein and the restoration of its associated fluorescence (CE50). These concentration values CE50 are inversely proportional to the chelating capacity of the chelators and the aptitude to mobilize iron from the LIP of the organism.
Comparatively, measurements were made, under the same conditions, of the efficacy in shifting iron(III) complexated with calcein of the two prior-art chelators, 8-hydroxyquinoline and O-trensox, the latter being currently considered to be the chelator having the greatest affinity for iron.

[7] = Caco-2 J4, cytostatic constituent, read-out: Constituent 1 (1-10 μM) IC50
[8] = Caco-2 J4, cytotoxic constituent, read-out: Constituent 2 (10-100 μM) IC50

Row | Compound | pFe3+ [1] | IC50 [2] [µM] | IC50 (Caco-2 cells [3]; [7]) [µM] | IC50 (Caco-2 cells [3]; [8]) [µM] | Constituent 1 (1-10 μM) % cell (Caco-2 cells [3]) [%] | Constituent 2 (10-100 μM) % cell (Caco-2 cells [3]) [%] | % LDH/control 10 μM (Caco-2 cells [4]) [%] | % LDH/control 100 μM (Caco-2 cells [4]) [%] | IC50 (HepG2 cells) [µM] | % of HepG2 cells concerned by the anti-proliferative effect (HepG2 cells) [%] | IC50 [5] [µM] | Ratio IC50 (CHO-MG/CHO) [5] | chelating capacity of HQ1-3 type compared with HQ1-4 type Quilamines [6]
1 | O=C(NCCN(CCNC(=O)c1cc(S(=O)(=O)O)c2cccnc2c1O)CCNC(=O)c1cc(S(=O)(=O)O)c2cccnc2c1O)c1cc(S(=O)(=O)O)c2cccnc2c1O [o-Trensox, reference compound] | 29.5 |  |  |  |  |  |  |  |  |  |  |  | 
2 | NCCCCNCCCCNCCCCNCc1ccc2cccc(O)c2n1 [HQ1-444] |  | 6.3 | 2 | 75 | 60 | 40 | 99 | 118 | 4.75 | 10 | 240 | 38 | 
3 | NCCCNCCCCNCCCCNCc1ccc2cccc(O)c2n1 [HQ1-443] |  | 20.2 | 1 | 35 | 5 | 95 | 88 | 189 | 2.25 | 17.5 | 258 | 13 | 
4 | NCCCNCCCCNCCCNCc1ccc2cccc(O)c2n1 [HQ1-343] |  |  | 2 | 40 | 30 | 70 | 89 | 255 | 2.15 | 12.5 |  |  | better chelating capacity
